This is an account of results in US11040954B1, “CXCR3 receptor agonists” (RECEPTOS LLC, priority 2016, dated 2021).

The target of series [1] is T1, CXCR3 (Homo sapiens, UniProt P49682).
T1 construct: host or cells: CHO-K1 (cAMP Hunter CHOK1 CXCR3 Gi cell line)
T1 sequence (P49682 1-368): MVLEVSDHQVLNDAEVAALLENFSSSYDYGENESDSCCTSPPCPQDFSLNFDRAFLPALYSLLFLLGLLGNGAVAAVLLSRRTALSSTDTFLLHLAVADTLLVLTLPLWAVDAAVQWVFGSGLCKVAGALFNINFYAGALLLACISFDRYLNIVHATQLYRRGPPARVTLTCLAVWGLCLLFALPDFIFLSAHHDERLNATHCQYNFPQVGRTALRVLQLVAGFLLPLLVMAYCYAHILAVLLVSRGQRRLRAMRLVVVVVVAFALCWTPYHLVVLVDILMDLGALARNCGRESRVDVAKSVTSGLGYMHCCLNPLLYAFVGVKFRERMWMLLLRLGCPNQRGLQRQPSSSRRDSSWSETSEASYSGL
Briefly: CXCR3 cAMP agonist assay (cAMP Hunter CHOK1 CXCR3 Gi cell line, forskolin-stimulated, HitHunter cAMP detection). Type of series: cell-based. As to conditions: cAMP Hunter CHOK1 CXCR3 Gi cells, 20 μM forskolin, 30 minutes; read-out: Activity (CXCR3 cAMP agonist assay compound EC50). In outline:
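CHOK1 cells expressing human CXCR3 with Gi coupling, 50,000/well in suspension in HBSS/10 mM HEPES/0.1% BSA pH 7.4, were co-treated with 20 μM forskolin and compound (12-point, 0-10 μM, 1% DMSO) for 30 min. cAMP was read by enzyme-complementation luminescence; CXCL11 dose response set maximum efficacy.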

The nature of series [2]: Mouse pharmacokinetics after oral gavage, plasma drug concentration by LC-MS/MS (BALB/c). Type of series: in vivo. As to conditions: 10 mg/kg, male mice. On the procedure:
Compounds were formulated in 5% DMSO/5% Tween20 in H2O, sonicated, vortexed, and put on stir plate overnight at a dose volume of 10 mL/kg. Balb/C (Jackson laboratories) or C57bl/6 (Taconic Biosciences) mice (8-9 weeks old) were acclimated to the colony for 3 days prior to dosing. Water and food were provided ab libitum. Compounds were administered by oral gavage. Groups of six animals received 3 to 4 bleeds per day with one terminal bleed. The time points were 30 min, 1 h, 2 h, 4 h, 6 h, 8 h, 24 h. Plasma was collected via centrifugation and analyzed for drug concentrations.
Preparation of Study Samples and Standards for Analysis by LC-MS/MS
50 μl of plasma was aliquoted into a 96 well deep-well polypropylene plate (2 mL) to which 5 μL of DMSO was added. For standards, 5 μl of test compound in DMSO at […] the standard concentration was added to 50 μl of blank matrix in a 96 well deep-well polypropylene plate. For example, for a 300 nM standard, the 10× DMSO concentration was 3 μM. Study samples that require dilution are diluted with the appropriate blank matrix. For example, for a 10× dilution, 5 μL of study sample is added to 45 μl of blank matrix. Protein was precipitated from study samples and standards with the addition of 150 μl of acetonitrile. After a clean plate map was placed firmly over the top of the 96-well plate, a bench top shaker was used for 1 min to ensure complete precipitation of protein. The precipitated protein was pelleted by centrifuging for 3,000 rpm for 10 min at 20° C. and then the clear supernatant was transferred to a clean 96-well plate and spun again under the same conditions in order to pellet any solid material that may have been transferred.
Analysis of Study Samples and Standards with LCMS with MRM Detection
An Agilent 1200 HPLC with binary pump and a Leap CTC with fast wash autosampler were used to introduce samples to the mass spectrometer.
The column used was a Phenomenex Luna C8 30×2 mm 5 μm with a security guard. Mass detection was performed by an Applied Biosystems 4000 Qtrap in MRM mode and ionization was achieved by positive electrospray with a source temperature of 500° C. The ion transitions, […] potential and collision energies were dependent on the specific analyte.
Prepared samples were usually analyzed in reverse chronological order with bracketing standard curves. Typically at least 6 standards were used for quantification with a percent accuracy of +/−15% for all standards except at the LLOQ where a percent accuracy of +/−20% was allowed. The concentration time profile was fit using a one compartment model for the applicable mode of dosing using Phoenix WinNonLin 6.4.

A short description of series [3]: Mouse pharmacokinetics after oral gavage, plasma drug concentration by LC-MS/MS (C57BL/6). To be noted: C57BL/6, 10 mg/kg, male mice. Type of series: in vivo, C57bl/6 mice. An outline of the steps: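 BALB/c or C57BL/6 mice (8–9 weeks) dosed by oral gavage in 5% DMSO/5% Tween20 in water at 10 mL/kg. Plasma sampled at 30 min to 24 h, acetonitrile-precipitated, quantified by LC-MS/MS (positive ESI, MRM) against bracketing standard curves. Profiles fit with a one-compartment model.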

[4] abbreviates: mouse, plasma, read-out: AUC0-24.

The structures appear in SMILES notation.

For orientation: EC50 means the midpoint of the concentration-response curve. Usually Cmax stands for the highest concentration seen after dosing. Regarding `Cc1cc(NC(=O)[C@H](CCNC(C)C)NC(=O)[C@@H]2Cc3ccccc3CN2C(=O)CCC(=O)c2ccccc2)ccc1Cl` [Compound 8-3], the EC50 in series [1] was less than 50 nM. In addition, the “apparent oral clearance (CL/F)” value amounted to 56 mL/min/kg in series [2] and 246 mL/min/kg in series [3]. Besides, the peak concentration (Cmax) in series [2] (mouse, plasma) is 800 nM; in series [3] (mouse, plasma), 330 nM. Further, the AUC(0-t) in series [2] (setting [4]) is 4.9 µM·h; in series [3] (setting [4]), 1.2 µM·h.
